Assays:
PIK3CA (human) = PIK3CA (human) (UniProt P42336); assay: Inhibition of PIK3CA Kinase Activity
PIK3CD (Human) = PIK3CD (Human) (UniProt O00329); assay: Inhibition of PIK3CD Kinase Activity
PIK3CD (Human), sequence (O00329 whole entry, looked up): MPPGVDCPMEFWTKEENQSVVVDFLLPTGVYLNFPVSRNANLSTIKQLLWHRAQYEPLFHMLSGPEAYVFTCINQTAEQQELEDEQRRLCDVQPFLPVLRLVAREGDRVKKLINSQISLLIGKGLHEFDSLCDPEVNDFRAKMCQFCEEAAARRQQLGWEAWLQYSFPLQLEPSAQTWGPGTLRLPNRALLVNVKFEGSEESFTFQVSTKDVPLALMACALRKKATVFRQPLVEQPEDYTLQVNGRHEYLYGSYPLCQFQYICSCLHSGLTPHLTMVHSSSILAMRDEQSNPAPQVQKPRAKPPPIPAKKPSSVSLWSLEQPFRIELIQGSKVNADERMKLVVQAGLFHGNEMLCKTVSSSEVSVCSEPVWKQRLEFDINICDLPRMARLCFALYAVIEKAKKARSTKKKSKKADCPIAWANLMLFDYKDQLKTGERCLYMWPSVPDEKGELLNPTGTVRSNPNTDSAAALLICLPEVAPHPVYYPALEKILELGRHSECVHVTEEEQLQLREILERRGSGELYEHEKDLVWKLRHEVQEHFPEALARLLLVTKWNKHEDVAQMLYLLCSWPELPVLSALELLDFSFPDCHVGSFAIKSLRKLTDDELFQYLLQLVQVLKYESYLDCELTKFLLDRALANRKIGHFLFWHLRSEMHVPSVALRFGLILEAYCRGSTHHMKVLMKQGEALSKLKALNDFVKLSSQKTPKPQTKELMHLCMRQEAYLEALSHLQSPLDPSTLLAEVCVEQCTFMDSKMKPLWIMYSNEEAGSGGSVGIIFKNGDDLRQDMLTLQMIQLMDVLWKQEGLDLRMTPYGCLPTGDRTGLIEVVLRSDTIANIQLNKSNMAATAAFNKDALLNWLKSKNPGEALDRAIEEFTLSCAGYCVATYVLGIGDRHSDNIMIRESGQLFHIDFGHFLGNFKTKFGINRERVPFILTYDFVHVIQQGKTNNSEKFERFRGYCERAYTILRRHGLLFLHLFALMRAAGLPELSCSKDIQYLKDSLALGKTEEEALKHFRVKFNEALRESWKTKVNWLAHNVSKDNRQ

PIK3CA (human), sequence (P42336 whole entry, looked up): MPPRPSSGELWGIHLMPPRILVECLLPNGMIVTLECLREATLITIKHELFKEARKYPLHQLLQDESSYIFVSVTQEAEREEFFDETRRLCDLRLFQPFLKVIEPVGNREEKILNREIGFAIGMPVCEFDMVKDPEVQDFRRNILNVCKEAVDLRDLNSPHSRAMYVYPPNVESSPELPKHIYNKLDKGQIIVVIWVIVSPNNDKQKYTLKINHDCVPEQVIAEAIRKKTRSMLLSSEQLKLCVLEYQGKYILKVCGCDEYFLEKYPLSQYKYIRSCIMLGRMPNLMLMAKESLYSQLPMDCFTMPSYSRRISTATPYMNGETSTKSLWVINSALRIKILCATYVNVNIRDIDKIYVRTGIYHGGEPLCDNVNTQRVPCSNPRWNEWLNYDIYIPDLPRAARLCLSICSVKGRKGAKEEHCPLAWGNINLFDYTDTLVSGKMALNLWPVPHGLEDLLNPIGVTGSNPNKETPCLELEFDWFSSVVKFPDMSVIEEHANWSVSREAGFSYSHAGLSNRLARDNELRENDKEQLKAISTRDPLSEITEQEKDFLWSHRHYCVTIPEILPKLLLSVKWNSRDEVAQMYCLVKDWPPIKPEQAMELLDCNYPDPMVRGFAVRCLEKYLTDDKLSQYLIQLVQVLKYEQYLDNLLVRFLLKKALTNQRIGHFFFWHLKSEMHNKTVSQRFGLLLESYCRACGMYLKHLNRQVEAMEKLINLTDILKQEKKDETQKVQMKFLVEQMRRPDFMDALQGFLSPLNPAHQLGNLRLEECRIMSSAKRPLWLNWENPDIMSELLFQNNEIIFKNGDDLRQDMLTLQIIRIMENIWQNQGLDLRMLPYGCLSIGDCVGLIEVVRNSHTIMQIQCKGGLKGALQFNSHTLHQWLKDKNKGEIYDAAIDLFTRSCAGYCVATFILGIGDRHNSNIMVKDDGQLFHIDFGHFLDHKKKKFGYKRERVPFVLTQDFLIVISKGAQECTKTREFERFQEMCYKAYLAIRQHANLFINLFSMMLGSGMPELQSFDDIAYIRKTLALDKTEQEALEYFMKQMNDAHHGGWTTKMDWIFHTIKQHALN

Compound	IC50 (PIK3CA (human))	IC50 (PIK3CD (Human))
Cc1ccc([N+](=O)[O-])cc1S(=O)(=O)NN=C(c1cnn2ccc(C#N)cc12)C(C)C	0.039 µM	0.31 µM
CC(=NNS(=O)(=O)c1cc([N+](=O)[O-])ccc1N(C)CCc1c[nH]cn1)c1cnn2ccc(Br)cc12	0.16 µM	–
CC(=NNS(=O)(=O)c1cc([N+](=O)[O-])ccc1N(C)Cc1cccnc1)c1cnn2ccc(Br)cc12	0.053 µM	–
CC(=NNS(=O)(=O)c1cc([N+](=O)[O-])ccc1N(C)CCN(C)C)c1cnc2ccc(Br)cn12	0.33 µM	–
CC(=NNS(=O)(=O)c1cc([N+](=O)[O-])ccc1C)c1cnn2ccc(Br)cc12.CCCCCC	0.03 µM	0.22 µM
CC(=NNS(=O)(=O)c1cc([N+](=O)[O-])ccc1N(C)CCN)c1cnn2ccc(C#N)cc12.CCCCCC	0.34 µM	–
CC(=NNS(=O)(=O)c1cc([N+](=O)[O-])ccc1N(C)CCN1CCN(S(C)(=O)=O)CC1)c1cnn2ccc(Br)cc12.CCCCCC	0.042 µM	–
CCCCCC.CCN(CC)CCN(C)c1ccc([N+](=O)[O-])cc1S(=O)(=O)NN=C(C)c1cnn2ccc(Br)cc12	0.23 µM	–
CC(=NNS(=O)(=O)c1cc([N+](=O)[O-])ccc1N(C)Cc1ccccn1)c1cnn2ccc(Br)cc12	0.0073 µM	0.23 µM
CC(=NNS(=O)(=O)c1cc([N+](=O)[O-])ccc1N(C)Cc1ccncc1)c1cnn2ccc(Br)cc12	0.2 µM	–
CC(=NNS(=O)(=O)c1cc([N+](=O)[O-])ccc1N(C)CCc1ccccn1)c1cnn2ccc(Br)cc12	0.09 µM	–
CC(=NNS(=O)(=O)c1cc([N+](=O)[O-])ccc1N(C)CCCN1CCOCC1)c1cnn2ccc(Br)cc12	0.45 µM	–
CC(=NNS(=O)(=O)c1cc([N+](=O)[O-])ccc1N(C)CCc1ccncc1)c1cnn2ccc(Br)cc12	0.044 µM	–
CCC(=NNS(=O)(=O)c1cc([N+](=O)[O-])ccc1C)c1cnn2ccc(C#N)cc12	0.0098 µM	–
CC(=NNS(=O)(=O)c1cc([N+](=O)[O-])ccc1N(C)CCn1ccnc1)c1cnn2ccc(Br)cc12	0.092 µM	–
CC(=NNS(=O)(=O)c1cc([N+](=O)[O-])ccc1F)c1cnc2ccc(Br)cn12	0.3 µM	–
CC(=NNS(=O)(=O)c1cc([N+](=O)[O-])ccc1F)c1cnn2ccc(Br)cc12	0.32 µM	0.5 µM
CC(=NNS(=O)(=O)c1cc([N+](=O)[O-])ccc1N(C)CCc1c[nH]cn1)c1cnn2ccc(C#N)cc12.CCCCCC	0.033 µM	0.17 µM

Continued, values first:

IC50 (PIK3CA (human))	IC50 (PIK3CD (Human))	Compound
0.051 µM	0.68 µM	CC(=NNS(=O)(=O)c1cc([N+](=O)[O-])ccc1N(C)CCN(C)C)c1cnn2ccc(C#N)cc12.CCCCCC
0.049 µM	0.42 µM	CC(=NNS(=O)(=O)c1cc([N+](=O)[O-])ccc1N(C)CCc1ccncc1)c1cnn2ccc(C#N)cc12
0.02 µM	0.86 µM	CC(=NNS(=O)(=O)c1cc([N+](=O)[O-])ccc1N(C)CCn1ccnc1)c1cnn2ccc(C#N)cc12
0.022 µM	0.22 µM	CC(=NNS(=O)(=O)c1cc([N+](=O)[O-])ccc1N(C)CCN1CCN(S(C)(=O)=O)CC1)c1cnn2ccc(C#N)cc12
0.0073 µM	–	CC(=NNS(=O)(=O)c1cc([N+](=O)[O-])ccc1C)c1cnn2ccc(C#N)cc12
0.055 µM	–	CC(=NNS(=O)(=O)c1cc([N+](=O)[O-])ccc1N(C)CCN1CCCCC1)c1cnn2ccc(C#N)cc12
0.14 µM	–	CCN(CC)CCN(C)c1ccc([N+](=O)[O-])cc1S(=O)(=O)NN=C(C)c1cnn2ccc(C#N)cc12
0.082 µM	0.39 µM	CNCCN(C)c1ccc([N+](=O)[O-])cc1S(=O)(=O)NN=C(C)c1cnn2ccc(C#N)cc12
0.0048 µM	0.011 µM	CC(=NNS(=O)(=O)c1cc([N+](=O)[O-])ccc1N(C)Cc1ccccn1)c1cnn2ccc(C#N)cc12
0.04 µM	0.33 µM	CC(=NNS(=O)(=O)c1cc([N+](=O)[O-])ccc1N(C)Cc1ccncc1)c1cnn2ccc(C#N)cc12
0.33 µM	0.66 µM	CC(=NN(C)S(=O)(=O)c1cc([N+](=O)[O-])ccc1N(C)CCN(C)C)c1cnn2ccc(C#N)cc12
0.023 µM	–	CC(=NNS(=O)(=O)c1cc([N+](=O)[O-])ccc1N(C)CCc1ccccn1)c1cnn2ccc(C#N)cc12
0.33 µM	–	CC(=NNS(=O)(=O)c1cc([N+](=O)[O-])ccc1N(C)CCCN1CCOCC1)c1cnn2ccc(C#N)cc12
0.0052 µM	0.58 µM	CC(=NN(C)S(=O)(=O)c1cc([N+](=O)[O-])ccc1N(C)Cc1ccccn1)c1cnn2ccc(C#N)cc12
0.1 µM	–	CC(=NNS(=O)(=O)c1cc([N+](=O)[O-])ccc1N(C)CCCN(C)C)c1cnn2ccc(C#N)cc12
0.48 µM	–	CC(=NN(C)S(=O)(=O)c1cc([N+](=O)[O-])ccc1N(C)CCc1ccccn1)c1cnn2ccc(C#N)cc12
0.46 µM	–	CCN(CC)CCN(C)c1ccc([N+](=O)[O-])cc1S(=O)(=O)N(C)N=C(C)c1cnn2ccc(C#N)cc12
0.24 µM	–	CC(=NN(C)S(=O)(=O)c1cc([N+](=O)[O-])ccc1N(C)CCN1CCCCC1)c1cnn2ccc(C#N)cc12
0.057 µM	–	CNCCN(C)c1ccc([N+](=O)[O-])cc1S(=O)(=O)NN=C(C)c1cnn2ccc(Br)cc12

Source: the Kinase Knowledgebase extract (Sharma et al. 2016)
